In US4472413A, “9'-Azabicyclo [3.3.1] nonyl benzamide” (Beecham Group p.l.c., priority 1981, dated 1984):

System: post-synaptic Dopamine (D.A.) receptors
Experiment: Inhibition of apomorphine induced climbing in the mouse
Assay type: in vivo
Conditions: po, 4 hour post dosing; apomorphine 1 mg/kg subcutaneous; male CD1 mice
Experimental: The results in the following table are an illustration of the anti-psychotic activity of the present compounds as shown by Inhibition of Apormorphine Induced Climbing in the Mouse, a standard test.
Inhibition of apomorphine induced climbing in the mouse
The test is based on that described by Protais, P., Constantin, J. and Schwartz J. C. (1976), Psychopharmacology, 50, 1-6.
When mice are given a dose of 1 mg/kg apomorphine and then placed in an enclosed environment, such as an inverted wire cage, they are seen to climb around the walls. This behavioural phenomenon is thought to be a consequence of the stimulation of post-synaptic Dopamine (D.A.) receptors in the nucleus accumbens. Inhibition of apomorphine induced climbing is therefore indicative of post-synaptic D.A. receptor blockage in the accumbens.
Groups of 10 male CD1 mice, weighing 25-30 g were pre-treated orally with either graded doses of the test compound or vehicle, at appropriate time intervals before the subcutaneous administration of a sub-maximal dose of apomorphine (1 mg/kg). Immediately after the apomorphine injection the mice were placed in wire `climbing cages` and each animal was scored for climbing behaviour at 10 and 20 minutes post apomorphine as follows:
Four paws on cage floor=0
The total score was calculated for each group of mice and expressed as a percentage inhibition of climbing. [formula]
ED50's and fiducial limits were calculated according to the method of Litchfield and Wilcoxon, the ED50 being the dose that produced a 50% inhibition of apomorphine-induced climbing.

Compound | ED50 (dose that produced a 50% inhibition of apomorphine-induced climbing)
COc1cc(N)c(Cl)cc1C(=O)N[C@@H]1C[C@H]2CCC[C@@H](C1)N2Cc1ccc(F)cc1 [Example 1B, 4-Amino-5-chloro-2-methoxy-N-{3'β-[9'-(4-fluorobenzyl)-9'-azabicyclo[3.3.1]-nonyl]}-benzamide] | 0.008 mg/kg
COc1cc(N)c(Cl)cc1C(=O)N[C@@H]1C[C@H]2CCC[C@@H](C1)N2Cc1ccc(Cl)cc1 [Example 2B] | 0.027 mg/kg
COc1cc(N)c(Cl)cc1C(=O)N[C@@H]1C[C@H]2CCC[C@@H](C1)N2Cc1ccc(C)cc1 [Example 3B, 4-Amino-5-chloro-2-methoxy-N-{3'β[9'-(4-methylbenzyl)-9'-azabicyclo[3.3.1]-nonyl]}-benzamide] | 0.07 mg/kg
